In patent publication US11077167B2, “Agent for promoting skeletal muscle injury repair” (Osaka University, priority 2017, dated 2021):

Assays:
[1] = tested on: muscle injury model rats (incised masseter muscles on both sides); experiment: Electrophysiological experiment (masseter EMG, Lissajous pattern), Example 1; assay type: in vivo, Jcl:SD rats; details: 1 week postoperatively
Description: (§1) Incisions were made in masseter muscles on both sides in Jcl:SD rats (10 weeks old). Immediately after muscle incision, 1 mL each of the SV peptide (20 ng/mL) was intramuscularly administered into several sites surrounding the cut surfaces. The incision on each side was made along a straight line connecting the lateral angle of the eye and the mandibular angle, extending in depth from the fascia on the skin side to the lateral periosteum on the mandibular ramus. The cut surfaces were subjected to electrocoagulation with an electric scalpel for the arrest of bleeding (see FIG. 1).
This experiment was performed on rats subjected to incision of masseter muscles on both sides and subsequent administration of the SV peptide into the incised left masseter muscle and of PBS into the incised right masseter muscle. Bipolar needle electrodes were retained in the masseter muscles on both sides, and myogenic potential signals received through connectors fixed to both sides of the parietal bone were monitored. Electromyographic (EMG) data were recorded preoperatively and 1 week postoperatively. Generally, in the electromyogram of masseter muscles recorded during food ingestion, the cutting phase and the grinding phase in the masticatory movement show different waveforms. […]
Lissajous pattern (FIG. 3). […] Based on this, the chewing side preference was determined.

[2] = tested on: muscle injury model rats (incised masseter muscles on both sides); experiment: CT image analysis at postoperative week 8; assay type: in vivo, Jcl:SD rats
Description: as §1, with “old) under anesthesia in the same manner as in Example 1.” for “old).”, “ng/mL) or 1 mL each of PBS” for “ng/mL)”, “1). […]” for “1).”
Images were taken at postoperative week 8 using a micro CT for laboratory animals (Rigaku, tube voltage: 90 kV, tube current: 160 μA, voxel size: 118 μm). […] On the image at the level of the occlusal plane including the masseter muscle incision site, the muscle cross-sectional area (CSA), the mean CT value, and the % CSA (the percentage of the area having a muscle CT value in the area of interest) were measured and compared.

[3] = tested on: muscle injury model rats (incised masseter muscles on both sides); experiment: Histological staining of masseter muscles at postoperative week 8, Example 2; assay type: in vivo, Jcl:SD rats; details: sirius red staining
Description: as §1, with “old) under anesthesia in the same manner as in Example 1.” for “old).”, “ng/mL) or 1 mL each of PBS” for “ng/mL)”, “1). […]” for “1).”
Each rat was euthanized at postoperative week 8, and the masseter muscles on both sides were excised. […] Histological characteristics of regenerated muscle fibers at the muscle injury site were assessed on the HE-stained sections. The amount of muscle fibers formed and the diameter of the muscle fibers in the tissue were measured on the sirius red-staining sections.

[4] = tested on: Human skeletal muscle satellite cells (HskMSCs); experiment: Cell proliferative capacity (WST-1 assay); assay type: cell-based; details: SV peptide 20 ng/mL; 0-72 hours
Excerpt: Human skeletal muscle satellite cells (HskMSCs) were purchased from ScienCell Research Laboratories and used. The medium used for HskMSC culture was the supplier's recommended medium (Skeletal Muscle Cell Medium containing 5% FBS, Skeletal Muscle Cell Growth Supplement, and penicillin/streptomycin solution).
Human skeletal muscle satellite cells and human skeletal muscle myoblasts were separately seeded at 1.0×10^4 cells/mL in each well of non-treated polystyrene 96-well cell culture plates (Falcon). The SV peptide (20 ng/mL, SV group), the random SV (20 ng/mL, random SV group), or PBS (PBS group) was added to the medium. The plates were cultured at 37° C. in a 5% CO2 atmosphere. After 0, 12, 24, 48, and 72 hours, cell proliferation was assessed using Premix WST-1 Cell Proliferation Assay System (Takara Bio, Japan).

[5] = tested on: Human skeletal muscle myoblasts (HSMMs); experiment: Myogenin expression by immunofluorescence staining; assay type: cell-based; details: SV peptide 20 ng/mL, HS group = 2% horse serum positive control
Excerpt: Human skeletal muscle myoblasts (HSMMs) were purchased from Lonza and used. The medium used for HSMM culture was the supplier's recommended medium (Skeletal Muscle Growth Media-2 supplemented with SingleQuots Kit).
Myogenin is known to be expressed when myoblasts differentiate into myotube cells. In this experiment, myogenin expression was used as an index to examine the effect of the SV peptide on the differentiation of human skeletal muscle myoblasts.
Human skeletal muscle myoblasts were cultured in a medium containing the SV peptide (20 ng/mL, SV group), the random SV (20 ng/mL, random SV group), or PBS (PBS group) for 48 or 72 hours. For a positive control, human skeletal muscle myoblasts were cultured in an F-12/DMEM medium containing 2% horse serum, which is known to facilitate myoblast differentiation into myotube cells (Moira A. Lawson et al.: Cells Tissues Organs 2000; 167: 130-137) (HS group). After 48- or 72-hour culture, the cells were immunostained with an anti-human myogenin antibody by the usual method and observed with a fluorescence microscope.

[6] = tested on: angiogenesis; details: Patent Literature 1, Non Patent Literature 1 and 2; compared with VEGF; cited from earlier work
[7] = tested on: mesenchymal cell; details: Patent Literature 2; cited from earlier work
[8] = Patent Literature 3; cited from earlier work
[9] = tested on: fibroblasts; details: Patent Literature 4; cited from earlier work

In the case of SVVYGLR [SV peptide], the chewing side preference ([1]; SV peptide into left, PBS into right masseter muscle) is reported as “left-side chewing preference was seen postoperatively”, the “mean myogenic potential of the left masseter muscle during left-side chewing” value ([1]; left = SV peptide side, right = PBS side) is reported as “reduced postoperatively, but the degree of the reduction was smaller than that in the mean myogenic potential of the right masseter muscle” and the “muscle cross-sectional area (CSA)” value ([2]; CT image at occlusal plane level, SV group vs PBS group) is reported as “significantly greater CSA in the area including the muscle incision site than that in the corresponding area in the PBS group”. For the same substance, the “% CSA (percentage of the area having a muscle CT value in the area of interest)” value ([2]; SV side vs control side within SV group) was “significantly higher % CSA on the left side with SV administration (SV side) than that on the right side without administration (control side)”, the “amount of scar formation (area of scar tissue formed on the cut surfaces)” value ([3]; SV peptide administration side vs PBS administration side) was “remarkably reduced from that on the PBS administration side in the PBS group” and the “diameter of the muscle fibers” value ([3]; SV side vs control side in SV group) was “significantly larger than that on the control side in the same group”. For the same substance, the cell proliferative capacity [4] was “not enhanced”, the “percentage of myogenin-positive cells” value ([5]; 48-hour culture) was “significantly higher than that in the PBS group or the random SV group, but significantly lower than that in the HS group” and the “percentage of myogenin-positive cells” value ([5]; 72-hour culture) was “significantly higher than that in the PBS group or the random SV group, and comparable to that in the HS group”. For the same substance, the angiogenic activity [6] was “high angiogenic activity that is comparable to that of VEGF”, the mesenchymal cell proliferation [7] was “promotes mesenchymal cell proliferation” and the cardiac function [8] was “improves cardiac function”. The “type III collagen production in fibroblasts” value [9] was “promotes type III collagen production in fibroblasts”.
